In patent US9783539B2, “Indoloquinolone compounds as anaplastic lymphoma kinase (ALK) inhibitors” (Jiangsu Ascentage Biomed Development Inc., priority 2014, dated 2017) one finds IC50 data, which are given here for one compound.

Structures are written as SMILES.

Experiment [1] deals with ALK mutant (G1269A) (Homo sapiens, UniProt Q9UM73, G1269A). The experiment is described as follows: biochemical. The settings on record: 100 μM ATP.
Description: (§1) Kinase activities of all enzymes were assessed using a Lance TR-FRET assay kit from Perkin Elmer Life Sciences (Waltham, Mass.). 2.5 μL of compound solution and 5 μL of protein solution were added into a black low volume 384 well microtiter plate which was incubated for 15 minutes with gentle shaking at room temperature, followed by adding 2.5 μL of fluorescently labeled peptide substrate (Ulight-[sequence]) and ATP mixture solution. The kinase reaction was performed in 50 mM HEPES (pH 7.5) with 1 mM EGTA, 1 mM MgCl2, and 2 mM DTT, 0.01% Tween-20 added right before the assay. […] The reaction was allowed to perform for 90 minutes in dark with gentle shaking at room temperature after which 10 μL of 20 mM EDTA and 2 nM Eu-W1024 anti-phosphotyrosine antibody (PT66) mixture solution in the detection buffer from the manufacturer was added to terminate the reaction and detect the phosphorylation of the peptide substrate. Final mixture was incubated in the dark for 1 hour before the plate was read on a Tecan Infinite M-1000 multi-mode plate reader (Tecan, Durham N.C.) with an excitation wavelength of 320 nm.
For experiment [2], the system named is Kappas-299 cells containing NPM-ALK fusion protein. The experiment in a line: 4-day cell viability assay (CellTiter-Glo), Kappas-299. The class given is cell-based. The settings on record: NPM-ALK, 96 h, inhibition of cell growth, 4 days, multiple values from independent experiments. Here is the method:
The effect of compounds on cell viability was determined in a 4-day proliferation assay. Cells were maintained in RPMI1640 culture medium with 10% FBS at 37° C. and an atmosphere of 5% CO2. […] Cells were seeded in 96-well plates at a density of 3,000-10,000 cells/well in 75 μl of culture medium. Compounds were serially diluted in the appropriate medium, and 75 μl of the diluted compounds were added to the appropriate wells of the cell plate. After the addition of compounds, the cells were incubated at 37° C. in an atmosphere of 5% CO2 for 4 days. Cell viability was determined using the CellTiter-Glo® Luminescent Cell Viability Assay Kit (Promega, Madison, Wis.) (for KARPAS-299 cells) or WST (2-(2-methoxy-4-nitrophenyl)-3-(4-nitrophenyl)-5-(2,4-disulfophenyl)-2H-tetrazolium, monosodium salt) Cell Counting-8 Kit (Dojindo Molecular Technologies, Inc., Rockville, Md.) (for H3122 cells) according to the manufacturers' instructions.
For CellTiter-Glo assay, 100 μl of CellTiter-Glo® Reagent was added to each well, and then the plates were incubated at room temperature for 10-20 minutes. The luminescent signal was measured using a Tecan Infinite M1000 multimode microplate reader (Tecan, Morrisville, N.C.). The readings were normalized to the DMSO-treated cells and the IC50 was calculated by nonlinear regression analysis using the GraphPad Prism 5 software.
Cells were treated for four days and cell growth was determined using a CellTiter-Glo assay.

In experiment [3] the target is wild-type human ALK protein (cytoplasmic domain, amino acid 1058-1620, GST-fusion) (Homo sapiens, UniProt Q9UM73). The experiment in a line: biochemical. The settings on record: 100 μM ATP.
wild-type human ALK protein (cytoplasmic domain, amino acid 1058-1620, GST-fusion), sequence (Q9UM73 1058-1620): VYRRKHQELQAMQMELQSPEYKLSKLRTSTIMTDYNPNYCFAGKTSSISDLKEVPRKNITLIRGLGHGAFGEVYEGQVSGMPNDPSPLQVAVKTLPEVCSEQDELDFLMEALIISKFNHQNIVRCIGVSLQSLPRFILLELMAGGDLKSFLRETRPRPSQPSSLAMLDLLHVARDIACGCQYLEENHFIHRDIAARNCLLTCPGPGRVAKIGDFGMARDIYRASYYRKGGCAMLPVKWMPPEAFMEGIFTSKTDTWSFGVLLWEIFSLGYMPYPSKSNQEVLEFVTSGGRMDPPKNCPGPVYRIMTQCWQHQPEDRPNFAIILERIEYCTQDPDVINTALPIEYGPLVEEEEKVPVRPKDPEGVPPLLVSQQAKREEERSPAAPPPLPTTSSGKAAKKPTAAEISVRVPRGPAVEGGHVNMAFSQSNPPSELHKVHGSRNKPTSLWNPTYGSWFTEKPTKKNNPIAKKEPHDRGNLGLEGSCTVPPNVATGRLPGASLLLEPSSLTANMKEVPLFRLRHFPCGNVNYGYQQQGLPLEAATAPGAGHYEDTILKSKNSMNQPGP
Description: as §1
In experiment [4] the target is ALK mutant (S1206Y) (Homo sapiens, UniProt Q9UM73, S1206Y). The experiment in a line: biochemical.
ALK mutant (S1206Y), sequence (Q9UM73 19-1620 S1206Y): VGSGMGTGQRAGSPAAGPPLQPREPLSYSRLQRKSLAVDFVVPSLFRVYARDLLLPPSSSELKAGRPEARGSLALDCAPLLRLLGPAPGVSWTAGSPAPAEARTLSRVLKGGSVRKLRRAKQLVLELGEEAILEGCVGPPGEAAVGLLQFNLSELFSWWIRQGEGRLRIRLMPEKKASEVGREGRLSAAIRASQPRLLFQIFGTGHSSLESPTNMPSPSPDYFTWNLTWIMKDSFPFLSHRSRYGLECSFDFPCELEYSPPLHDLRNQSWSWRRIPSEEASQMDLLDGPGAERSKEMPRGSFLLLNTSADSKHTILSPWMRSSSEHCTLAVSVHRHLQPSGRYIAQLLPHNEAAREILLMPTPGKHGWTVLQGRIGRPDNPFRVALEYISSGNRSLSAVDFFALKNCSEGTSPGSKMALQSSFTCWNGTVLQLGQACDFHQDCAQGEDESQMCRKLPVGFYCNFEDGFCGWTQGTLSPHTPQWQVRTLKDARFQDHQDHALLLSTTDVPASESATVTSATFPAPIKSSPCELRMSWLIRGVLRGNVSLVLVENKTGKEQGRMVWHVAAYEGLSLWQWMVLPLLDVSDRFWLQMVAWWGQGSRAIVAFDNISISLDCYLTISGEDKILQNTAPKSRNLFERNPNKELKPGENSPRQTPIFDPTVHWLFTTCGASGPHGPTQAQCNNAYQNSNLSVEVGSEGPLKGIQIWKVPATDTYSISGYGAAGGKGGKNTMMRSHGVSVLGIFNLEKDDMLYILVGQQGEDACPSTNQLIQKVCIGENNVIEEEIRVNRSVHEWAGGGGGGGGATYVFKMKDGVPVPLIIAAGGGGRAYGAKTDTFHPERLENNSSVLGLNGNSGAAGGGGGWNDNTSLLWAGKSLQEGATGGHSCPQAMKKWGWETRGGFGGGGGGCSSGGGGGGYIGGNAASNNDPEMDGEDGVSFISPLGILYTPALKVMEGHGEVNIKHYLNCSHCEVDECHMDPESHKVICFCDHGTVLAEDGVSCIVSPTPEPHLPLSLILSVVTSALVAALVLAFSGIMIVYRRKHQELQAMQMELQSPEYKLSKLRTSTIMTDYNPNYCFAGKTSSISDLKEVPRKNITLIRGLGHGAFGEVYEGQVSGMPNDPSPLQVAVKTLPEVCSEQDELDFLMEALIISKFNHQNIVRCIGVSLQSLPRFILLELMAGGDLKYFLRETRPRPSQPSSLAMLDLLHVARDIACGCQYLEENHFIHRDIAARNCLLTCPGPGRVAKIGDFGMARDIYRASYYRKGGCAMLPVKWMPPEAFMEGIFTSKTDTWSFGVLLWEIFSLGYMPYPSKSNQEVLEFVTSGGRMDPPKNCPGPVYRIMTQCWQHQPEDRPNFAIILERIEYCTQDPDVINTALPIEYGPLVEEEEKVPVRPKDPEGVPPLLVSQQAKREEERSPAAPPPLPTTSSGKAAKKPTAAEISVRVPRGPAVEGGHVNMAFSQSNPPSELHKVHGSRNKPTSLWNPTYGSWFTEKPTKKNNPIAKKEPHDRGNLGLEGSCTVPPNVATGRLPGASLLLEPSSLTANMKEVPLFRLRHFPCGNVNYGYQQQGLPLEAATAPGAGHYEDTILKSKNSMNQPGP
Description: as §1

ALK mutant (G1269A), sequence (Q9UM73 19-1620 G1269A): as the sequence (Q9UM73 19-1620 S1206Y) above, with Y1188S, G1251A counted along it

Turning to `C#Cc1cc2c(=O)c3c4ccc(C#N)cc4[nH]c3n(C3CCC3)c2cc1N1CCN(C)CC1` [ALK-72, 5-Cyclobutyl-2-ethynyl-3-(4-methylpiperazin-1-yl)-11-oxo-6,11-dihydro-5H-indolo[2,3-b]quinoline-8-carbonitrile], the IC50 in experiment [1] worked out at 2.4 nM; in experiment [2] it was 52 nM; in experiment [3] (ALK IC50, wild-type ALK), 0.67 nM; in experiment [3] (IC50 ALK Wild-type, Table 2, wild-type ALK), 0.67 nM; in experiment [4], 2.8 nM.
